Experimental data: PubChem BioAssay (NCI)
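Cultured in 96-well plates, cells were exposed to test compound for 48 hours across five concentrations. At the TGI there is no net growth.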

Assays:
Experiment in all cases: NCI anticancer screen, dose series, 48 h
[1] = test system: 786-0 renal
[2] = test system: A498 renal
[3] = test system: A549 NSCLC
[4] = test system: BT-549 breast
[5] = test system: CAKI-1 renal
[6] = test system: COLO 205 colon
[7] = test system: DU-145 prostate
[8] = test system: EKVX NSCLC
[9] = test system: HCC-2998 colon
[10] = test system: HCT-116 colon
[11] = test system: HL-60(TB) leukemia
[12] = test system: HOP-62 NSCLC
[13] = test system: HOP-92 NSCLC
[14] = test system: HS 578T breast
[15] = test system: HT29 colon
[16] = test system: IGROV1 ovarian
[17] = test system: KM12 colon
[18] = test system: LOX IMVI melanoma
[19] = test system: M14 melanoma
[20] = test system: MALME-3M melanoma
[21] = test system: MCF7 breast
[22] = test system: MDA-MB-231 breast
[23] = test system: MDA-MB-435
[24] = test system: MDA-N
[25] = test system: MOLT-4 leukemia
[26] = test system: NCI-H226 lung
[27] = test system: NCI-H23 lung
[28] = test system: NCI-H460 lung
[29] = test system: NCI-H522 lung
[30] = test system: NCI/ADR-RES ovarian
[31] = test system: OVCAR-3 ovarian
[32] = test system: OVCAR-5 ovarian
[33] = test system: OVCAR-8 ovarian
[34] = test system: PC-3 prostate
[35] = test system: RPMI-8226 leukemia
[36] = test system: RXF 393 renal
[37] = test system: SF-268 CNS
[38] = test system: SF-295 CNS
[39] = test system: SF-539 CNS
[40] = test system: SK-MEL-2 melanoma
[41] = test system: SK-MEL-28 melanoma
[42] = test system: SK-MEL-5 melanoma
[43] = test system: SK-OV-3 ovarian
[44] = test system: SN12C renal
[45] = test system: SNB-19 CNS
[46] = test system: SNB-75 CNS
[47] = test system: SR leukemia
[48] = test system: SW-620 colon
[49] = test system: T-47D breast
[50] = test system: TK-10 renal
[51] = test system: U251 CNS
[52] = test system: UACC-257 melanoma
[53] = test system: UO-31 renal
[54] = test system: ACHN renal
[55] = test system: CCRF-CEM leukemia
[56] = test system: HCT-15 colon
[57] = test system: K-562 leukemia
[58] = test system: OVCAR-4 ovarian
[59] = test system: UACC-62 melanoma

## CN(C)CCNc1ccc2c(=O)n(CCN(C)C)c(=O)n3c4ccccc4c(=O)c1c23
[1]
  TGI: 1.35 µM
[2]
  TGI: 0.554 µM
[3]
  TGI: > 40.3 µM
[4]
  TGI: 5.7 µM
[5]
  TGI: 2.05 µM
[6]
  TGI: 0.671 µM
[7]
  TGI: 0.179 µM
[8]
  TGI: 2.56 µM
[9]
  TGI: 0.473 µM
[10]
  TGI: 0.615 µM
[11]
  TGI: 0.286 µM
[12]
  TGI: 0.265 µM
[13]
  TGI: 0.462 µM
[14]
  TGI: 3.65 µM
[15]
  TGI: 1.68 µM
[16]
  TGI: 0.982 µM
[17]
  TGI: 1.14 µM
[18]
  TGI: 1.48 µM
[19]
  TGI: 1.81 µM
[20]
  TGI: 1.93 µM
[21]
  TGI: 1.78 µM
[22]
  TGI: 0.682 µM
[23]
  TGI: 0.537 µM
[24]
  TGI: 0.71 µM
[25]
  TGI: < 0.0201 µM
[26]
  TGI: 1.58 µM
[27]
  TGI: 0.565 µM
[28]
  TGI: 0.364 µM
[29]
  TGI: 0.58 µM
[30]
  TGI: 5.5 µM
[31]
  TGI: 2.81 µM
[32]
  TGI: 5.03 µM
[33]
  TGI: 8.78 µM
[34]
  TGI: 7.09 µM
[35]
  TGI: 0.0616 µM
[36]
  TGI: 0.688 µM
[37]
  TGI: 0.482 µM
[38]
  TGI: 0.516 µM
[39]
  TGI: 0.272 µM
[40]
  TGI: 1.7 µM
[41]
  TGI: 5.26 µM
[42]
  TGI: 0.163 µM
[43]
  TGI: 6.2 µM
[44]
  TGI: 0.294 µM
[45]
  TGI: 7.12 µM
[46]
  TGI: 0.403 µM
[47]
  TGI: 0.0298 µM
[48]
  TGI: 3.98 µM
[49]
  TGI: 3.89 µM
[50]
  TGI: 4.31 µM
[51]
  TGI: 3.63 µM
[52]
  TGI: 1.62 µM
[53]
  TGI: 1.8 µM

## COc1ccc(OC)c(N2C(=O)/C(=C\c3ccccc3)SC2c2cc(OC)c(OC)c(OC)c2)c1 (stereo unspecified)
[1]
  TGI: > 100 µM
[2]
  TGI: > 100 µM
[3]
  TGI: > 100 µM
[54]
  TGI: 6.85 µM
[4]
  TGI: > 100 µM
[5]
  TGI: > 100 µM
[55]
  TGI: > 100 µM
[6]
  TGI: > 100 µM
[7]
  TGI: > 100 µM
[8]
  TGI: > 100 µM
[9]
  TGI: > 100 µM
[10]
  TGI: > 100 µM
[56]
  TGI: > 100 µM
[11]
  TGI: > 100 µM
[12]
  TGI: > 100 µM
[13]
  TGI: > 100 µM
[14]
  TGI: > 100 µM
[15]
  TGI: > 100 µM
[16]
  TGI: > 100 µM
[57]
  TGI: > 100 µM
[17]
  TGI: > 100 µM
[18]
  TGI: > 100 µM
[19]
  TGI: > 100 µM
[20]
  TGI: > 100 µM
[21]
  TGI: > 42.7 µM
[22]
  TGI: > 100 µM
[23]
  TGI: > 75 µM
[24]
  TGI: 52.1 µM
[25]
  TGI: > 100 µM
[26]
  TGI: > 100 µM
[27]
  TGI: > 100 µM
[29]
  TGI: 74.9 µM
[30]
  TGI: > 100 µM
[31]
  TGI: > 100 µM
[58]
  TGI: > 100 µM
[32]
  TGI: > 100 µM
[33]
  TGI: > 100 µM
[34]
  TGI: > 100 µM
[35]
  TGI: > 100 µM
[36]
  TGI: > 31.4 µM
[37]
  TGI: > 100 µM
[38]
  TGI: > 100 µM
[40]
  TGI: > 100 µM
[41]
  TGI: > 100 µM
[42]
  TGI: > 100 µM
[43]
  TGI: > 100 µM
[44]
  TGI: > 100 µM
[45]
  TGI: > 100 µM
[46]
  TGI: > 100 µM
[47]
  TGI: > 100 µM
[48]
  TGI: > 100 µM
[49]
  TGI: > 100 µM
[50]
  TGI: > 100 µM
[51]
  TGI: > 100 µM
[52]
  TGI: > 100 µM
[53]
  TGI: > 100 µM

## c1ccc(NNN2NC(c3ccccc3)C2c2ccccc2)cc1 (stereo unspecified)
[1]
  TGI: > 100 µM
[2]
  TGI: > 100 µM
[3]
  TGI: > 100 µM
[54]
  TGI: > 100 µM
[4]
  TGI: > 100 µM
[5]
  TGI: > 100 µM
[55]
  TGI: > 100 µM
[6]
  TGI: > 100 µM
[7]
  TGI: > 100 µM
[8]
  TGI: > 100 µM
[9]
  TGI: > 100 µM
[10]
  TGI: > 100 µM
[56]
  TGI: > 100 µM
[11]
  TGI: > 100 µM
[13]
  TGI: > 100 µM
[14]
  TGI: > 100 µM
[15]
  TGI: > 100 µM
[57]
  TGI: > 100 µM
[17]
  TGI: > 100 µM
[18]
  TGI: > 100 µM
[19]
  TGI: > 100 µM
[20]
  TGI: > 100 µM
[21]
  TGI: > 100 µM
[22]
  TGI: > 100 µM
[23]
  TGI: > 100 µM
[24]
  TGI: > 100 µM
[25]
  TGI: > 100 µM
[26]
  TGI: > 100 µM
[27]
  TGI: > 100 µM
[28]
  TGI: > 100 µM
[29]
  TGI: > 100 µM
[30]
  TGI: > 100 µM
[31]
  TGI: > 100 µM
[58]
  TGI: > 100 µM
[32]
  TGI: > 100 µM
[33]
  TGI: > 100 µM
[34]
  TGI: > 100 µM
[35]
  TGI: > 100 µM
[36]
  TGI: > 100 µM
[37]
  TGI: > 100 µM
[38]
  TGI: > 100 µM
[39]
  TGI: > 100 µM
[40]
  TGI: > 100 µM
[41]
  TGI: > 100 µM
[42]
  TGI: > 100 µM
[43]
  TGI: > 100 µM
[44]
  TGI: > 100 µM
[45]
  TGI: > 100 µM
[46]
  TGI: > 100 µM
[47]
  TGI: > 100 µM
[48]
  TGI: > 100 µM
[49]
  TGI: > 100 µM
[50]
  TGI: > 100 µM
[51]
  TGI: > 100 µM
[52]
  TGI: > 100 µM
[59]
  TGI: > 100 µM
[53]
  TGI: > 100 µM
